Assay results taken from patent US8859783B2, “Indirubin-3′-oxime derivatives as potent cyclin dependent kinase inhibitors” (Anygen Co., Ltd., priority 2010, dated 2014).
pIC50: −log10 of the molar value. Entries after “also recorded” stand apart in the source; their conditions may differ.

How the values were obtained:
[1] = system: A549 human lung cancer cell; test: SRB cell proliferation assay, A549; assay type: cell-based; conditions: A549, 72 h, 3 days
Experimental: (§1) ^a A series of indirubin derivatives were tested at five concentrations for their effects on various human cancer cell lines using SRB assay, as described in the Experimental Section.
(§2) Cells (A549, HT1080, HCT116, K562, SNU638, KB, MCF-7) were counted, diluted to 5×10^4 cells/mL with fresh medium (MEME, DMEM or RPMI containing 10% FBS), and added 190 μL of cell suspension to 96-well plates containing various concentrations of test compounds (10 μL in 10% aqueous DMSO). Test plates were incubated for 3 days at 37° C. in CO2 incubator. For zero day controls, cells were incubated for 30 min at 37° C. in CO2 incubator. All treatments were performed in triplicate. After the incubation periods, cells were fixed with 50 μL of cold 50% TCA at 4° C. for 30 min, washed 5 times with tap water, and air-dried. The fixed cells were stained with 0.4% SRB solution in 1% aqueous acetic acid at room temperature for 1 h. Free SRB solution was then removed by rinsing 5 times with 1% acetic acid, and air-dried. The bound dye was dissolved with 200 µL of 10 mM Tris-base (pH 10.0), and absorbance was determined at 515 nm using an ELISA microplate reader. Finally, the absorbance values obtained with each of the treatment procedures were averaged, and the average values obtained with the zero day control were subtracted.

[2] = system: HT1080 human fibro sarcoma cell; test: SRB cell proliferation assay, HT1080; assay type: cell-based; conditions: HT-1080, 72 h, 3 days
Experimental: as §1, §2

[3] = system: HCT116 human colon cancer cell; test: SRB cell proliferation assay, HCT116; assay type: cell-based; conditions: 3 days
Experimental: as §1, §2

K562 human leukemia cell = test: SRB cell proliferation assay, K562; assay type: cell-based; conditions: K562, 72 h, 3 days
Experimental: as §1, §2

[4] = system: SNU638 human stomach cancer cell; test: SRB cell proliferation assay, SNU638; assay type: cell-based; conditions: SNU-638, 72 h, 3 days
Experimental: as §1, §2

[5] = system: KB human nasopharyngeal cancer cell; test: SRB cell proliferation assay, KB; assay type: cell-based; conditions: 72 h, 3 days
Experimental: as §1, §2

[6] = system: MCF-7 human breast cancer cell; test: SRB cell proliferation assay, MCF-7; assay type: cell-based; conditions: MCF7, 72 h, 3 days
Experimental: as §1, §2

CDK1 = conditions: from a report; read-out: CDK1 inhibitory activity IC50; cited from earlier work
CDK2/cyclin E = biological target: T1, CDK2/cyclin E (Homo sapiens, UniProt P24941); test: CDK2/cyclin E kinase assay; assay type: biochemical; conditions: ten concentrations, dose response curves; read-out: CDK2/cyclin E inhibitory activity IC50
T1 construct: purchased Milipore (Billerica, Mass.)
Experimental: CDK1/cyclin B, CDK2/cyclin E were purchased from Milipore (Billerica, Mass.). The kinase activity was tested in buffer (8 mM MOPS pH 7.0, 0.2 mM EDTA, 10 mM MgAcetate), with 0.1 mg/mL histone H1, in the presence of 45 µM [—^33P] ATP (500 cpm/pmol) for CDK1 or 120 μM [γ—^33P] ATP (500 cpm/pmol) for CDK2 in a final reaction volume of […]. The reaction was initiated by the addition of the MgATP mix. After incubation for 40 min at 30° C., the reaction was stopped by the addition of 5 μL of 3% phosphoric acid solution. 10 μL aliquots of supernatant were spotted onto 2.5 cm×3 cm pieces of Whatman […] phosphocellulose paper, and 20 s later, the filters were washed three times for 5 min in 75 mM phosphoric acid and once in methanol prior to drying. The […] filters were counted in the presence of 1 mL of ACS (Amersham) scintillation fluid. The activities are usually expressed as a percentage of the maximal activity, i.e., in the absence of inhibitors. Controls were applied with appropriate dilutions of DMSO.

CDK1/cyclin B = CDK1/cyclin B (Homo sapiens, UniProt P06493); test: CDK1/cyclin B kinase assay; assay type: biochemical; conditions: read-out: IC50 in CDK1/cycline B kinase assay
Excerpt: The reaction was initiated by the addition of the MgATP mix.

IKKβ = biological target: T2, IKKβ (Homo sapiens, UniProt O14920); test: HTRF kinase assay, IKKβ; assay type: biochemical; conditions: dose response curves; read-out: IC50 against IKKβ
T2 construct: Recombinant proteins containing kinase domain were purchased from Millipore (Billerica, Mass.); purchased Millipore (Billerica, Mass.)
T2 sequence (O14920 15-300 limits assumed): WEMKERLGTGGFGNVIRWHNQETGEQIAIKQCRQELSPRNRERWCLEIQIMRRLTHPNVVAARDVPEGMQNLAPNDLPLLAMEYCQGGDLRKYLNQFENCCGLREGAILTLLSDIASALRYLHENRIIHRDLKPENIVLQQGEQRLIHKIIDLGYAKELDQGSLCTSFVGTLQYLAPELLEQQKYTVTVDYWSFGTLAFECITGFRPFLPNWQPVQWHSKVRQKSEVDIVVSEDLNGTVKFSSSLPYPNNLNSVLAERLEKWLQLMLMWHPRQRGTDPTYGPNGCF
Experimental: (§3) Inhibition of kinase activity against a variety of recombinant kinases (c-Met, Met M1250T, Ron, VEGF2, EGFR, TrkA, PI3Kγ, IKKβ Insulin receptor, Aurora A) was measured using homogeneous time-resolved fluorescence (HTRF) assays. Briefly, assays are based on the phosphorylation of peptide substrates in the presence of ATP. Resulting phosphorylated substrates are detected by TR-FRET (Time Resolved-Fluorescence Resonance Energy Transfer) signal. Recombinant proteins containing kinase domain were purchased from Millipore (Billerica, Mass.). Optimal enzyme, ATP, and substrate concentrations were established for each enzyme using HTRF KinEASE kit (Cisbio) according to the manufacturer's instruction. Assays are consisted of enzymes mixed with serially diluted compounds and peptide substrates in kinase reaction buffer (250 mM HEPES (pH 7.0), 0.5 mM orthovanadate, 0.05% BSA, 0.1% NaN3). Following the addition of reagents for detection, TR-FRET signal was measured using EnVision multi-label reader (Perkin Elmer, Waltham, Mass.).

TrkA = biological target: T3, TrkA (Homo sapiens, UniProt P04629); test: HTRF kinase assay, TrkA; assay type: biochemical
T3 construct: Recombinant proteins containing kinase domain were purchased from Millipore (Billerica, Mass.); purchased Millipore (Billerica, Mass.)
Experimental: as §3

[7] = system: T4, c-Met, Met M1250T, Ron, VEGF2, EGFR, TrkA, PI3Kγ, IKKβ Insulin receptor, Aurora A; test: Kinase panel screening (HTRF); assay type: biochemical; conditions: 10 μM
T4 construct: other: 10 μM
Experimental: as §3

[8] = system: several human cancer cell lines; test: SRB cell proliferation assay, summary over cell lines; assay type: cell-based; conditions: Homo sapiens, range over cell lines; read-out: anti-proliferative IC50, range over cancer cell lines
Experimental: as §1, §2

[9] = Tumor xenograft animal model, body weight; assay type: in vivo, SD rats; conditions: 5 mg/kg i.v. every other day, five times
Excerpt: The k-ras-transformed rat kidney epithelial cell line (RK3E-ras) were maintained in DMEM supplemented with 10% FCS, 100 units/mL penicillin, and 100 Ag/mL streptomycin. RK3E-ras cells were kindly provided by Dr. Eric Fearon (University of Michigan Medical School, Ann Arbor, Mich.) and have been described in the previous report. Male SD rats (6 weeks of age) were used to examine the inhibition of tumor growth in vivo. RK3E-ras-Luc cells (5×10^6) were implanted subcutaneously into the flank of the rats on Day 0, and rats were grouped randomly (5 […]/group) on Day 5 as previously described. […] The animals were sacrificed 48 hr after the final administration, and rat weights and tumor volumes were measured. The tumor growth volumes were calculated as follows: V=(ab^2)/2, where, a is the longest diameter and b is the shortest diameter of the tumor. All experiments were conducted under protocols approved by the Animal Care and Use Committee at Chosun University School of Dentistry (Gwangju, South Korea).

RK3E-ras-Luc cells [10] = test: In vivo bioluminescence imaging assay; set-up: species or system SD rats; conditions: day 10 after treatment, 5 mg/kg i.v.
Excerpt: For bioluminescence imaging, the rats received an i.p. injection of luciferin (Molecular Probes, Palo Alto, Calif.) with Rumpun/ketamine (1:1) anesthesia. The rats were imaged using a LAS-1000 plus imaging System (Fuji film. Tokyo. Japan) to record the bioluminescent signal emitted from the tumor. The LAS-1000 system equipped with a CCD camera was used for acquisition of the emitted light, and Living Image software (Multi Gauge v3.0) was used for data analysis.

RK3E-ras-Luc cells [11] = test: Histology (H&E) of tumor tissue; assay type: in vivo, SD rats; conditions: 5 mg/kg i.v.
Experimental: (§4) The excised solid tumors were fixed in 10% buffered formalin and embeddedin paraffin. For optical microscopic examinations, 4-μm sectioned tissues were stained with H&E. Immunohistochemical staining was performed with the avidin-biotin complex method using anti-PCNA antibodies. The immune reactions were visualized with 3,3′-diaminobenzidine and counterstained with Mayer's hematoxylin. A TUNEL assay was performed using an ApopTag PlusPeroxidase In Situ Apoptosis Detection kit (Intergen, Purchase, N.Y.) according to the manufacturer's instructions. Briefly, the slides were deparaffinized and treated with 20 μg/mL proteinase K at 37° C. for 15 min to enhance staining. After immersion 3% hydrogen peroxide to block the endogenous peroxidase, the slides were incubated with a reaction buffer containing terminal de-oxynucleotidyl transferase at 37° C. for 1 h. The slides were then incubated with a peroxidase-conjugated anti-digoxigenin antibody for 30 min, and the reaction products were visualized with a 0.03% 3,3′-diaminobenzidine solution containing 2 mM hydrogen peroxide. The slides were counterstained with 0.5% methyl green.

RK3E-ras-Luc cells [12] = test: TUNEL assay on tumor sections; assay type: in vivo, SD rats; conditions: 5 mg/kg i.v.
Experimental: as §4

PCNA = test: Immunohistochemical staining for PCNA in tumor; assay type: in vivo, SD rats; conditions: 5 mg/kg i.v.
Experimental: as §4

T3 sequence (P04629 510-781 limits assumed): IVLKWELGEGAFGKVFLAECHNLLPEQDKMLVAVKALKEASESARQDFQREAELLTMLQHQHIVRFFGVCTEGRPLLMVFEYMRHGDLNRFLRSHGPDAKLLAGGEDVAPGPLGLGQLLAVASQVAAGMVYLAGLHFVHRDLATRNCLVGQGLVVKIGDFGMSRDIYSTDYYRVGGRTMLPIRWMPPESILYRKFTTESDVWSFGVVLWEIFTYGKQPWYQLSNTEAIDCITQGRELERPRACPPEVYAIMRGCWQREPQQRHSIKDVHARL
CDK1/cyclin B, sequence (P06493 whole entry): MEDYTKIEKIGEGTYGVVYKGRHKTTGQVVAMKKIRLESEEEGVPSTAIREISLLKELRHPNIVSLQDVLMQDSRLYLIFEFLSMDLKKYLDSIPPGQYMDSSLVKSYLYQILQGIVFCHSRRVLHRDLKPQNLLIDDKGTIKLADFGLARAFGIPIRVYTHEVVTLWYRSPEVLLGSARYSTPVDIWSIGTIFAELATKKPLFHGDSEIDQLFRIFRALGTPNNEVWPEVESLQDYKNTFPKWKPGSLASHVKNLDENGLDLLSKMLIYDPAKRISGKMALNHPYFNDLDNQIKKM
CDK1/cyclin B, sequence (P14635 whole entry partner): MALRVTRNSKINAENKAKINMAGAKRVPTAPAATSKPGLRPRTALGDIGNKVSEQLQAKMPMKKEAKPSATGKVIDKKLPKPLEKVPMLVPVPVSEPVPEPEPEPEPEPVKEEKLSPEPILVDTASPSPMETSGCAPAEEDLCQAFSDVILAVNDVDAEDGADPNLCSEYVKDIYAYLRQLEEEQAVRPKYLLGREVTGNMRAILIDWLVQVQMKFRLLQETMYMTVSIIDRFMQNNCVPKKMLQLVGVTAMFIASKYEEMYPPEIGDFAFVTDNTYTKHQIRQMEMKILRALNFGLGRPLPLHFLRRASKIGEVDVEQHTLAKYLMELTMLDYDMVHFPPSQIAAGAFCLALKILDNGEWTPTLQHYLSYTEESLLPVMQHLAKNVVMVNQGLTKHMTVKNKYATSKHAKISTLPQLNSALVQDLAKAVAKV

pIC50 [1]	pIC50 [2]	pIC50 ([3]; Homo sapiens, HCT-116, 72 h)	pIC50 (K562 human leukemia cell)	pIC50 [4]	pIC50 [5]	pIC50 [6]	Structure (SMILES)	pIC50 (CDK2/cyclin E)	inhibitory activity against kinase panel [7]	further results
4.77	5.84	6.35	6.11	5.94	5.94	6.02	O=C1Nc2ccc([N+](=O)[O-])cc2C1=C1Nc2ccc(Br)cc2C1=NO [Compound 2, 5′-Bromo-5-nitro-indirubin-3′-oxime, reference compound]			pIC50 (CDK1): 6.72
4.81	5.90	~6.52	6.25	5.94	5.96	6.30	O=C1Nc2ccc([N+](=O)[O-])cc2/C1=C1/Nc2ccc(Cl)cc2C1=NO [Compound 12b, (2′Z, 3′E)-5′-Chloro-5-nitro-indirubin-3′-oxime]	7.63	negligible inhibitory activities	pIC50 [3]: 6.48

Structure (SMILES)	pIC50 [1]	pIC50 [2]	pIC50 ([3]; Homo sapiens, HCT-116, 72 h)	pIC50 (K562 human leukemia cell)	pIC50 [4]	pIC50 [5]	pIC50 [6]	pIC50 (CDK2/cyclin E)	inhibitory activity against kinase panel [7]	further results
O=C1Nc2ccc([N+](=O)[O-])cc2/C1=C1/Nc2ccc(O)cc2C1=NO [Compound 11b, (2′Z, 3′E)-5′-Hydroxy-5-nitro-indirubin-3′-oxime]						5.89	5.92	8.72	weak inhibitory activity only against Aurora A, IKKβ and TrkA	pIC50 (CDK1/cyclin B): 7.89; pIC50 (IKKβ): 5.00; inhibition at 1 µM (TrkA; 1 μM, read-out: inhibitory activity against TrkA): 9%; pIC50 (TrkA; dose response curves, read-out: IC50 against TrkA): 5.40; pIC50 [8]: 5.48 to 6.70; body weight compared with control [9]: without loss of body weight; also recorded: no significant difference in body weight; luminescence intensity (indicator of tumor growth) (RK3E-ras-Luc cells [10]): significantly decreased; histological analysis of treated tumor (RK3E-ras-Luc cells [11]): extensive cell death; TUNEL-positive apoptotic cells compared with control tissue (RK3E-ras-Luc cells [12]): about 6.0 fold; expression level of PCNA compared with control (PCNA): decreased
